One test deals with T1, LmGSTZ1 (Locusta migratoria, UniProt V9Q4A6).
T1 construct: gene GSTz1; full-length ORF in pET28a, E. coli BL21(DE3), His-tag Ni-NTA purified
T1 sequence (V9Q4A6 1-217): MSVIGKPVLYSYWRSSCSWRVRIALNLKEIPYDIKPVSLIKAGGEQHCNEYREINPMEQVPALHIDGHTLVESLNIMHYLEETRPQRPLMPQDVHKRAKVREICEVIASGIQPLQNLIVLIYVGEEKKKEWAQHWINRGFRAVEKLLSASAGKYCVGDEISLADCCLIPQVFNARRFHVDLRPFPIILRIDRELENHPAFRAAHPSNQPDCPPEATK
In words: spectrophotometric GST assay, steady state. It is filed as biochemical. The settings on record: co-substrate GSH; pH and temperature not given; read-out: K m ^CDNB. The text has this:
spectrophotometric GST assay, steady state on LmGSTZ1

Another test deals with T2, LmGSTS5 (Locusta migratoria, UniProt F4YUJ4).
T2 construct: full-length ORF in pET28a, E. coli BL21(DE3), His-tag Ni-NTA purified
T2 sequence (F4YUJ4 1-202): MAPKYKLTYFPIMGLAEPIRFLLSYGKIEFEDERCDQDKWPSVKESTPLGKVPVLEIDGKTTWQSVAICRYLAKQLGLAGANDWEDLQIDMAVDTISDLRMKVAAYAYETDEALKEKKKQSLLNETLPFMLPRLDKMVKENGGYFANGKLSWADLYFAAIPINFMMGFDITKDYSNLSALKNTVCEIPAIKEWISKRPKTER
Kind of test: spectrophotometric GST assay, steady state. It is filed as biochemical. The settings on record: co-substrate GSH; pH and temperature not given; read-out: K m ^CDNB. From the text:
spectrophotometric GST assay, steady state on LmGSTS5

SMILES strings stand for the structures.

In the case of `O=[N+]([O-])c1ccc(Cl)c([N+](=O)[O-])c1` [CDNB], the Km at LmGSTZ1 is 452 ± 58 µM; at LmGSTS5, 253 ± 26 µM.

The values above are taken from PMC4259467, “Molecular Cloning, Characterization and Positively Selected Sites of the Glutathione S-Transferase Family from Locusta migratoria” (PLoS ONE, 2014).
